From patent publication US20250326794A1, “ANTI-CANCER LEUCINE-RICH PEPTIDES AND USES THEREOF” (KING'S COLLEGE LONDON, priority 2019, published 2025)
Where two headings read alike, the source gives them in different places.

Columns and labels:
[1] = test system: HEK293T (human embryonic kidney cell); assay: cells
Text: (§1) HMLER (human mammary endothelial cancer cells), HMLER-shEcad (human mammary endothelial cancer stem cells), and MCF-10A (healthy human mammary endothelial) cells were maintained in Mammary Epithelial Cell Growth Medium (MEGM) with supplements and growth factors: bovine pituitary extract (BPE), hydrocortisone, human epidermal growth factor (hEGF), insulin, and gentamicin/amphotericin-B. HEK293T (human embryonic kidney cell), and U2OS (Homo sapiens bone osteosarcoma) cells were maintained in Dulbecco's Modified Eagle's Medium (DMEM) with a final concentration of 10% fetal bovine serum. The cells were grown in T75 flask at 310 K in a humidified atmosphere containing 5% CO2.
(§2) The colourimetric MTT (3-(4,5-dimethylthiazol-2-yl)-2,5-diphenyltetrazolium bromide) assay was used to determine the toxicity of the anticancer peptides and conventional anticancer drugs. 5×10^3 cells were seeded in each well of a 96-well microplate. The cells were incubated overnight. Elevated concentrations of the compounds (0, 0.1, 0.2, 0.4, 0.8, 1.6, 3.1, 6.3, 12.5, 25, 50 and 100 μM) were added and incubated for 72 hr with a total volume 200 μL. The stock solutions of the compounds were prepared as 5 mM solutions in DMSO and diluted using media or in pure water. The final concentration of DMSO in each well was either 0.5% or 0% and this amount was present in the untreated control. After 72 hr, 20 μL of a 4 mg/mL solution of MTT in PBS was added to each well, and the plate was incubated for an additional 4 hr. The MEGM/MTT mixture was aspirated and 100 μL of DMSO was added to dissolve the resulting purple formazan crystals. The absorbance of the solutions in each well was read at 550 nm wavelength. Absorbance values were normalized to either DMSO-containing or non DMSO-containing control wells and plotted as concentration of test compound versus % cell viability. IC50 values were interpolated from the resulting dose dependent curves.
(§3) The peptides were screened against several different human cell lines and their cytotoxicity were determined. Cell lines utilised include MCF-10A (human breast epithelial cell), HMLER (human breast cancer bulk cell), HMLER-shEcad (human breast cancer stem cell), HEK293T (human embryonic kidney cell), and U2OS (human bone osteosarcoma).

[2] = test system: HMLER (human breast cancer bulk cell); assay: cells
Text: as §1, §2, §3

[3] = test system: HMLER-shEcad (human breast cancer stem cell); assay: cells
Text: as §1, §2, §3

[4] = test system: U2OS (human bone osteosarcoma)
Text: as §1, §2, §3

[5] = Tryptophan fluorescent binding assay, POPC vesicles; conditions: 50 μM peptide, PBS pH 7.4, lipid per peptide
Description: (§4) In brief, 50 μM peptides were fixed and incubated with titrated POPC vesicles (black) or 3POPC/1POPG vesicles (grey) at concentrations of 0, 12.5, 25, 50, 100, 250, 500, 1000, 2500, and 5000 μM in phosphate buffered saline (1×, pH 7.4). The lipid concentration that causes 50% peptide binding was determined using a tryptophan fluorescent binding assay and the values are shown as lipid per peptide.
(§5) The lipids 1-palmitoyl-2-oleoyl-sn-glycero-3-phosphocholine (POPC), 1-palmitoyl-2-oleoyl-snglycero-3-phospho-(1′-rac-glycerol) (POPG) were purchased from Avanti Polar Lipids and dissolved in chloroform. Large unilamellar vesicles (LUVs) were produced by extrusion through 100 nm pore filter using an extruder and filters purchased from Avanti Polar Lipids.
(§6) Peptides (50 μM) and POPC/POPG LUVs (600 μM) were prepared in 10 mM phosphate buffer (pH 7.0). The solutions were incubated and measured after 60 minutes. Excitation was fixed at 280 nm (slit 9 nm) and emission was collected from 300 to 450 nm (slit 9 nm). The spectra were recorded using a Synergy H1 Hybrid Multi-Mode Reader (FIG. 3A) and Cytation™ 5 Cell Imaging Multi-Mode Reader (FIG. 2) from BioTek and were averaged over 3 scans.
(§7) Table 3 illustrates the lipid concentration-induced 50% peptide binding onto a liposome. 50 μM peptide was fixed and incubated with titrated lipid (POPC vesicles or 3POPC/1POPG vesicles) at concentrations of 0, 12.5, 25, 50, 100, 250, 500, 1000, 2500, and 5000 μM in phosphate buffered saline (1×, pH 7.4). The lipid concentration that causes 50% peptide binding was determined using tryptophan fluorescent binding assay and the values are shown as lipid per peptide. †N-terminus is free, C-terminus: —W—NH2.

[6] = Tryptophan fluorescent binding assay, 3POPC/1POPG vesicles; conditions: 50 μM peptide, PBS pH 7.4, lipid per peptide
Description: as §4, §5, §6, §7

[7] = ANTS/DPX liposome leakage assay, POPC vesicles; format: biochemical; conditions: 0.5 mM vesicles; for Peptide Concentration-induced 50% ANTS/DPX leakage at pH 4.8, POPC Vesicle: pH 4.8, lipid per peptide; for Peptide Concentration-induced 50% ANTS/DPX leakage at pH 7.4, POPC Vesicle: pH 7.4, lipid per peptide
Description: (§8) In brief, 0.5 mM POPC vesicles (grey) or POPC:POPG vesicles (ratio 3:1, black) were incubated with peptide concentrations of 0, 0.02, 0.04, 0.08, 0.16, 0.32, 0.64, 1.25, 2.5, 5, 10, and 20 μM in each A) hydrochloric acid-adjusted phosphate buffered saline (1×, pH 4.8) and B) phosphate buffered saline (1×, pH 7.4).
as §5
(§9) 5 mM ANTS (8-aminonaphthalene-1,3,6-trisulfonic acid, disodium salt) and 12.5 mM DPX (p-xylene-bis-pyridinium bromide) were entrapped in 0.1 μm diameter extruded vesicles with lipids. Gel filtration chromatography using a Sephadex G-100 (GE Healthcare Life Sciences Inc) was used to remove external free ANTS/DPX from LUVs with entrapped contents. LUVs were diluted to 0.5 mM and used to measure the leakage activity by addition of aliquots of peptides. Leakage was measured after 3 h incubation. 10% Triton was used as the positive control to measure the maximum leakage of the vesicle. Fluorescence emission spectra were recorded using excitation and emission wavelength of 350 nm and 510 nm for ANTS/DPX using a BioTek Synergy H1 Hybrid Multi-Mode Reader.
(§10) Table 4 illustrates peptide concentration-induced 50% ANTS/DPX liposome leakage. 0.5 mM POPC and 3POPC/1POPG vesicles were fixed and incubated with titrated peptide concentration ([…]) each in phosphate buffered saline (1×, pH 7.4) and hydrochloric acid-adjusted phosphate buffered saline (1×, pH 4.8). The values are shown as lipid per peptide. †N-terminus is free, C-terminus: —W—NH2.

[8] = ANTS/DPX liposome leakage assay, 3POPC/1POPG vesicles; format: biochemical; conditions: 0.5 mM vesicles; for Peptide Concentration-induced 50% ANTS/DPX leakage at pH 4.8, 3POPC/1POPG Vesicle: pH 4.8, lipid per peptide; for Peptide Concentration-induced 50% ANTS/DPX leakage at pH 7.4, 3POPC/1POPG Vesicle: pH 7.4, lipid per peptide
Description: as §8, §5, §9, §10

SMILES	IC50 ([1]; read-out: IC50 HEK293T, MTT, 72 hr) [µM]	IC50 ([2]; read-out: IC50 HMLER, MTT, 72 hr) [µM]	IC50 ([3]; read-out: IC50 HMLER-shEcad, MTT, 72 hr) [µM]	IC50 ([4]; read-out: IC50 U20S, MTT, 72 hr) [µM]	Lipid Concentration-induced 50% Peptide Binding, POPC Vesicle [5] [L/P]	Lipid Concentration-induced 50% Peptide Binding, 3POPC/1POPG Vesicle [6] [L/P]	Peptide Concentration-induced 50% ANTS/DPX leakage at pH 4.8, POPC Vesicle [7] [L/P]	Peptide Concentration-induced 50% ANTS/DPX leakage at pH 7.4, POPC Vesicle [7] [L/P]	Peptide Concentration-induced 50% ANTS/DPX leakage at pH 4.8, 3POPC/1POPG Vesicle [8] [L/P]	Peptide Concentration-induced 50% ANTS/DPX leakage at pH 7.4, 3POPC/1POPG Vesicle [8] [L/P]	IC50 ([1]; 72 h) [µM]	IC50 ([2]; 72 h) [µM]	IC50 ([3]; 72 h) [µM]	IC50 ([4]; 72 h) [µM]
CC(C)C[C@H](NC(=O)CN)C(=O)N[C@@H](CC(C)C)C(=O)N[C@@H](CC(=O)O)C(=O)N[C@@H](CC(C)C)C(=O)N[C@@H](CC(C)C)C(=O)N[C@@H](Cc1c[nH]cn1)C(=O)N[C@@H](CC(C)C)C(=O)N[C@@H](CC(C)C)C(=O)N[C@@H](CC(C)C)C(=O)N[C@@H](CCCCN)C(=O)N[C@@H](C)C(=O)N[C@@H](C)C(=O)NCC(=O)N[C@@H](Cc1c[nH]c2ccccc12)C(N)=O [DHK]	7.3 ± 0.42	1.75 ± 0.49	1.02 ± 0.12	20.4 ± 2.05	0.20	0.38	47	747	183	469	–	–	–	–
CC(C)C[C@H](NC(=O)CN)C(=O)N[C@@H](CC(C)C)C(=O)N[C@@H](CC(=O)O)C(=O)N[C@@H](CC(C)C)C(=O)N[C@@H](CC(C)C)C(=O)N[C@@H](CCCCN)C(=O)N[C@@H](CC(C)C)C(=O)N[C@@H](CC(C)C)C(=O)N[C@@H](CC(C)C)C(=O)N[C@@H](CCC(=O)O)C(=O)N[C@@H](C)C(=O)N[C@@H](C)C(=O)NCC(=O)N[C@@H](Cc1c[nH]c2ccccc12)C(N)=O [DKE]	–	–	–	–	0.56	0.46	21	747	469	411	7.8 ± 1.41	2.1	1.57 ± 0.33	9.93 ± 0.25
CC(C)C[C@H](NC(=O)CN)C(=O)N[C@@H](CC(C)C)C(=O)N[C@@H](CC(=O)O)C(=O)N[C@@H](CC(C)C)C(=O)N[C@@H](CC(C)C)C(=O)N[C@@H](CCCCN)C(=O)N[C@@H](CC(C)C)C(=O)N[C@@H](CC(C)C)C(=O)N[C@@H](CC(C)C)C(=O)N[C@@H](Cc1c[nH]cn1)C(=O)N[C@@H](C)C(=O)N[C@@H](C)C(=O)NCC(=O)N[C@@H](Cc1c[nH]c2ccccc12)C(N)=O [DKH]	–	–	–	–	10.00	0.46	41	614	58	274	6.15 ± 1.34	3.45 ± 0.07	2.8 ± 0.28	21.1 ± 3.01
CC(C)C[C@H](NC(=O)CN)C(=O)N[C@@H](CC(C)C)C(=O)N[C@@H](CC(=O)O)C(=O)N[C@@H](CC(C)C)C(=O)N[C@@H](CC(C)C)C(=O)N[C@@H](CCCCN)C(=O)N[C@@H](CC(C)C)C(=O)N[C@@H](CC(C)C)C(=O)N[C@@H](CC(C)C)C(=O)N[C@@H](CCCCN)C(=O)N[C@@H](C)C(=O)N[C@@H](C)C(=O)NCC(=O)N[C@@H](Cc1c[nH]c2ccccc12)C(N)=O [DKK]	–	–	–	–	2.75	6.88	47	463	227	156	3.4 ± 0.28	1.95 ± 0.35	1.2 ± 0.14	10.4 ± 1.7
CC(C)C[C@H](NC(=O)CN)C(=O)N[C@@H](CC(C)C)C(=O)N[C@@H](CCC(=O)O)C(=O)N[C@@H](CC(C)C)C(=O)N[C@@H](CC(C)C)C(=O)N[C@@H](Cc1c[nH]cn1)C(=O)N[C@@H](CC(C)C)C(=O)N[C@@H](CC(C)C)C(=O)N[C@@H](CC(C)C)C(=O)N[C@@H](Cc1c[nH]cn1)C(=O)N[C@@H](C)C(=O)N[C@@H](C)C(=O)NCC(=O)N[C@@H](Cc1c[nH]c2ccccc12)C(N)=O [EHH]	–	–	–	–	0.94	0.69	386	1043	80	981	5.9 ± 0.14	25.4 ± 2.76	16.1 ± 3.18	117 ± 7
CC(C)C[C@H](NC(=O)CN)C(=O)N[C@@H](CC(C)C)C(=O)N[C@@H](CCC(=O)O)C(=O)N[C@@H](CC(C)C)C(=O)N[C@@H](CC(C)C)C(=O)N[C@@H](Cc1c[nH]cn1)C(=O)N[C@@H](CC(C)C)C(=O)N[C@@H](CC(C)C)C(=O)N[C@@H](CC(C)C)C(=O)N[C@@H](CCCCN)C(=O)N[C@@H](C)C(=O)N[C@@H](C)C(=O)NCC(=O)N[C@@H](Cc1c[nH]c2ccccc12)C(N)=O [EHK]	–	–	–	–	0.56	0.42	55	981	117	505	5.35 ± 0.07	1.35 ± 0.35	0.71 ± 0.13	25
